Holding throughout (experiment): relative viability (nuclei count vs DMSO), 5 days (fraction); higher = more cells survive
Compound in the test “BI-2536 + Navitoclax”: CC[C@@H]1C(=O)N(C)c2cnc(Nc3ccc(C(=O)NC4CCN(C)CC4)cc3OC)nc2N1C1CCCC1 [BI-2536] + CC1(C)CCC(c2ccc(Cl)cc2)=C(CN2CCN(c3ccc(C(=O)NS(=O)(=O)c4ccc(N[C@H](CCN5CCOCC5)CSc5ccccc5)c(S(=O)(=O)C(F)(F)F)c4)cc3)CC2)C1 [Navitoclax] (partner 0.5 µM)
The method in brief: (§1)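 Relative viability equals treated-well nuclei counts divided by vehicle-well nuclei counts. Counts came from 4× images of lung cancer cell lines grown in 1536-well plates for 5 days after pin-tool dosing on the day after seeding. Dosing used one drug alone or a fixed anchor-drug dose plus five library-drug doses (not always all listed) in √10 steps, and values are medians of duplicate plates.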

Compound in the test “BI-2536 + Pictilisib”: CC[C@@H]1C(=O)N(C)c2cnc(Nc3ccc(C(=O)NC4CCN(C)CC4)cc3OC)nc2N1C1CCCC1 [BI-2536] + CS(=O)(=O)N1CCN(Cc2cc3nc(-c4cccc5[nH]ncc45)nc(N4CCOCC4)c3s2)CC1 [Pictilisib] (partner 1 µM)
The method, boiled down:
as §1

Compound in the test “BI-2536 + Pemetrexed”: CC[C@@H]1C(=O)N(C)c2cnc(Nc3ccc(C(=O)NC4CCN(C)CC4)cc3OC)nc2N1C1CCCC1 [BI-2536] + Nc1nc2[nH]cc(CCc3ccc(C(=O)N[C@@H](CCC(=O)O)C(=O)O)cc3)c2c(=O)[nH]1 [Pemetrexed] (partner 0.2 µM)
The method in brief: as §1

Compound in test [1]: CC1CC(=O)N(C2=CN=C(N=C2N1C3CCCC3)NC4=C(C=C(C=C4)C(=O)NC5CCN(CC5)C)OC)C [NPK76-II-72-1] + CS(=O)(=O)CCNCc1ccc(-c2ccc3ncnc(Nc4ccc(OCc5cccc(F)c5)c(Cl)c4)c3c2)o1 [Lapatinib] (partner 2 µM)
The method, boiled down: as §1

Take UMC-11: the relative viability with BI-2536 + Navitoclax (first compound 0.01 µM) stood at 0.279; with BI-2536 + Navitoclax (first compound 0.03162 µM) it was 0.286; with BI-2536 + Navitoclax (first compound 0.1 µM), 0.166; with BI-2536 + Navitoclax (first compound 0.3162 µM), 0.136; with BI-2536 + Navitoclax (first compound 1 µM), 0.112; with BI-2536 + Pictilisib (first compound 0.01 µM), 0.851. The relative viability was determined as 0.647 with BI-2536 + Pictilisib (first compound 0.03162 µM); 0.11 in the test with BI-2536 + Pictilisib (first compound 0.1 µM); 0.153 in the test with BI-2536 + Pictilisib (first compound 0.3162 µM); 0.14 with BI-2536 + Pictilisib (first compound 1 µM); 0.8 in the test with BI-2536 + Pemetrexed (first compound 0.01 µM); 0.57 in the test with BI-2536 + Pemetrexed (first compound 0.03162 µM). Moreover, the relative viability with BI-2536 + Pemetrexed (first compound 0.1 µM) was 0.242; with BI-2536 + Pemetrexed (first compound 0.3162 µM) it was 0.194; in the test with BI-2536 + Pemetrexed (first compound 1 µM), 0.184; in test [1] (first compound 0.01 µM), 0.923; in test [1] (first compound 0.03162 µM), 1.07; in test [1] (first compound 0.1 µM), 1.08. For the same cell line, the values for the relative viability in test [1] (first compound 0.3162 µM) and in test [1] (first compound 1 µM) were 0.782 and 1.05, respectively.

The values are drawn from the supplement of paper PMC10307832.
